Laboratory results reported in US20070042963A1, “Therapeutic peptides” (Medarex, Inc., priority 2000, published 2007).

Key:
Mab 64G12 = experiment: ELISA binding of peptides to Mab 64G12; set-up: species or system mouse; conditions: biotin-SGSG-peptide on streptavidin plates, peptide 20 μM, antibody 1 μg/ml
Experimental: Binding of Peptides to Mab 64G12
The 11 mer (SEQ ID no. 2) and a number of modified versions of that polypeptide derived by deletion or substitution were tested for ability to bind Mab 64G12 by ELISA. […]. The peptides were biotinylated at the N-terminus with a spacer sequence SGSG between the peptide and the biotin, i.e. biotin-SGSG-peptide.
ELISA screening for ability to bind Mab 64G12 was carried out using Nunc Maxisorb plates coated with Streptavidin 5 μg/ml, 100 μl/well overnight at 37° C. The plates were then blocked with 200 μl/well of PBS containing 0.1% Tween 20, 1% sodium caseinate (CAST) for 1 hour at 20° C. Peptides were dissolved by adding 50 μl of DMSO and 0.6 ml of 40% acetonitrile to each tube. For peptide coating, 100 μl of PBS, 0.1% Tween 20 (PT) were added to each well, followed by 2 μl of each peptide solution (final peptide concentration 20 μM). After 30 mins, the monoclonal antibody was added at 1 μg/ml in PT for 1 hour at 20° C. The plates were washed and 100 μl/well of a 1/2000 dilution of horseradish peroxidase labeled goat anti-mouse IgG (H+L) in CAST plus 1% sheep serum (CASS) was added for 1 hour at 20° C. After washing, 100 μl of ABTS substrate was distributed to all wells. Absorbance was measured after 10 and 45 mins incubation on a plate reader using dual wavelength ([…]) to correct for background.

IFN-R on Daudi cells = experiment: Inhibition of Type 1-IFN binding to the IFN-R on Daudi cells: 125I-IFN-α2 binding in presence of Mab 64G12 with or without peptide; conditions: Mab 64G12 2 μg, 125I-labeled human IFN-α2 0.13 nM, 2 hours at 4° C.
Experimental: Inhibition of Type 1-IFN Binding to the IFN-R on Daudi Cells.
Cultures of exponentially growing Daudi cells (2 million cells/0.2 ml RPMI 1640 medium with 10% fetal calf serum) were treated with: Mab 64G12 (2 μg), alone or together with: (i) a soluble affinity purified recombinant polypeptide corresponding to amino acids 1 to 427 of the extracellular domain region sequence of the IFNAR1 chain as reported by Uze et al., 1990, Cell, 60, 224-234 (prepared as described in Benoit et al., 1993, J. Immunol., 150, 707-716 and Published International Application WO 92/18626 and purified first on a NI-NTA agarose column (Qiagen) and subsequently eluted with 300 mM imidazole. The eluted partially purified soluble IFNAR1 was then applied to a 5.0 ml 64G12 Mab sepharose column and eluted with 0.1 M glycine, pH 2.8. The eluted IFNAR1 was pure as determined by SDS-PAGE under denaturing conditions) or (ii) the peptide of SEQ ID no. 2 (the 11 mer). This was followed by the addition of ^125I-labeled human IFN-α2 (iodination as described by Mogensen et al., 1981, Int. J. Cancer, 28, 575-582; 90000 cpm, 0.13 nM) and incubation for 2 hours at 4° C. The cells were then washed 3 times with culture medium containing 1% fetal calf serum and the cell pellet counted in a gamma counter.

[1] = tested on: anti-IFN-R antibody (34F10); experiment: Effect of peptide on binding of non-neutralizing anti-IFN-R antibody 34F10 to the IFN-R; conditions: epitope distant from the ligand binding site

binding to Mab 64G12 by ELISA (Mab 64G12) | ability of antibody 34F10 to bind to the IFN-R [1] | Substance | IFN binding to the IFN-R in the presence of Mab 64G12 (IFN-R on Daudi cells)
specifically bind |  | FSSLKLNVY (Modified peptide from Hu IFNAR1 receptor) [9 mer] | 
only background binding |  | KLNVYE (Modified peptide from Hu IFNAR1 receptor) [Peptide 7] | 
specifically bind | does not affect | NFSSLKLNVYE (Modified peptide from Hu IFNAR1 receptor) [Peptide 12] | restored IFN-binding to a high degree
